Measurements taken from patent US12304890B2, “R-type pyridyloxycarboxylic acid, salt and ester derivative thereof, and preparation method therefor, and herbicidal composition and application thereof” (Qingdao Kingagroot Chemical Compound Co., Ltd., priority 2018, dated 2025).

What was measured:
Format in all cases: in vivo
Echinochloa crusgalli = test: Post-emergence test experiment, Echinochloa crusgalli; conditions: 1000 g a.i./ha, 3 weeks in greenhouse, fresh weight inhibition
In short: (§1)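 Greenhouse post-emergence spray at 2-3 leaf stage (2 wk after sowing); acetone/tween-80 formulation, methyl oleate EC synergist 1.5 L/ha, water-diluted. Plants held 3 wk, then fresh weight inhibition rate read.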

Digitaria sanguinalis = test: Post-emergence test experiment, Digitaria sanguinalis; conditions: 1000 g a.i./ha, 3 weeks in greenhouse, fresh weight inhibition
In short: as §1

[1] = test system: Monocotyledonous and dicotyledonous weed seeds and main crop seeds; test: Post-emergence test experiment, other weeds and crops (Table 4, 1000 g a.i./ha); conditions: 3 weeks in greenhouse, fresh weight inhibition
In short: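 Growth inhibition is scored on fresh weight. Spray solutions were made in acetone with tween-80, diluted in water, plus 1.5 L/ha methyl oleate emulsible concentrate. Plants from greenhouse-grown weed and crop seeds were treated post-emergence at 2-3 leaves, 2 weeks after sowing.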

CCCCCCSC(=O)[C@@H](C)Oc1nc(F)c(Cl)c(N)c1Cl [Compound 2-102]
Activity level (growth inhibition rate), Echinochloa crusgalli (Echinochloa crusgalli): 5 (Level 5: the growth inhibition rate is greater than 85%)
Activity level (growth inhibition rate), Digitaria sanguinalis (Digitaria sanguinalis): 5 (Level 5: the growth inhibition rate is greater than 85%)
Activity level (growth inhibition rate), Abutilon theophrasti Medic. [1]: 5 (Level 5: the growth inhibition rate is greater than 85%)
Activity level (growth inhibition rate), Galium aparine [1]: 5 (Level 5: the growth inhibition rate is greater than 85%)
Activity level (growth inhibition rate), Monochoria Vaginalis [1]: 5 (Level 5: the growth inhibition rate is greater than 85%)

COC(=O)[C@@H](C)Oc1nc(F)c(Cl)c(NC(C)=O)c1Cl [Compound 2-377]
Activity level (growth inhibition rate), Echinochloa crusgalli (Echinochloa crusgalli): 5 (Level 5: the growth inhibition rate is greater than 85%)
Activity level (growth inhibition rate), Digitaria sanguinalis (Digitaria sanguinalis): 5 (Level 5: the growth inhibition rate is greater than 85%)
Activity level (growth inhibition rate), Abutilon theophrasti Medic. [1]: 5 (Level 5: the growth inhibition rate is greater than 85%)
Activity level (growth inhibition rate), Galium aparine [1]: 5 (Level 5: the growth inhibition rate is greater than 85%)
Activity level (growth inhibition rate), Monochoria Vaginalis [1]: 5 (Level 5: the growth inhibition rate is greater than 85%)

CCCCCCCCCCSC(=O)[C@@H](C)Oc1nc(F)c(Cl)c(N)c1Cl [Compound 2-196]
Activity level (growth inhibition rate), Echinochloa crusgalli (Echinochloa crusgalli): 5 (Level 5: the growth inhibition rate is greater than 85%)
Activity level (growth inhibition rate), Digitaria sanguinalis (Digitaria sanguinalis): 5 (Level 5: the growth inhibition rate is greater than 85%)
Activity level (growth inhibition rate), Abutilon theophrasti Medic. [1]: 5 (Level 5: the growth inhibition rate is greater than 85%)
Activity level (growth inhibition rate), Galium aparine [1]: 5 (Level 5: the growth inhibition rate is greater than 85%)
Activity level (growth inhibition rate), Monochoria Vaginalis [1]: 5 (Level 5: the growth inhibition rate is greater than 85%)

C[C@@H](Oc1nc(F)c(Cl)c(N)c1Cl)C(=O)SCc1cccnc1 [Compound 2-347]
Activity level (growth inhibition rate), Echinochloa crusgalli (Echinochloa crusgalli): 5 (Level 5: the growth inhibition rate is greater than 85%)
Activity level (growth inhibition rate), Digitaria sanguinalis (Digitaria sanguinalis): 5 (Level 5: the growth inhibition rate is greater than 85%)
Activity level (growth inhibition rate), Abutilon theophrasti Medic. [1]: 5 (Level 5: the growth inhibition rate is greater than 85%)
Activity level (growth inhibition rate), Galium aparine [1]: 5 (Level 5: the growth inhibition rate is greater than 85%)
Activity level (growth inhibition rate), Monochoria Vaginalis [1]: 5 (Level 5: the growth inhibition rate is greater than 85%)

Cc1ccccc1OC(=O)[C@@H](C)Oc1nc(F)c(Cl)c(N)c1Cl [Compound 2-355]
Activity level (growth inhibition rate), Echinochloa crusgalli (Echinochloa crusgalli): 5 (Level 5: the growth inhibition rate is greater than 85%)
Activity level (growth inhibition rate), Digitaria sanguinalis (Digitaria sanguinalis): 5 (Level 5: the growth inhibition rate is greater than 85%)
Activity level (growth inhibition rate), Abutilon theophrasti Medic. [1]: 5 (Level 5: the growth inhibition rate is greater than 85%)
Activity level (growth inhibition rate), Galium aparine [1]: 5 (Level 5: the growth inhibition rate is greater than 85%)
Activity level (growth inhibition rate), Monochoria Vaginalis [1]: 5 (Level 5: the growth inhibition rate is greater than 85%)

CC(Oc1nc(F)c(Cl)c(N)c1Cl)C(=O)OCc1ccccc1F (stereo not shown) [Compound 2-308]
Activity level (growth inhibition rate), Echinochloa crusgalli (Echinochloa crusgalli): 5 (Level 5: the growth inhibition rate is greater than 85%)
Activity level (growth inhibition rate), Digitaria sanguinalis (Digitaria sanguinalis): 5 (Level 5: the growth inhibition rate is greater than 85%)
Activity level (growth inhibition rate), Abutilon theophrasti Medic. [1]: 5 (Level 5: the growth inhibition rate is greater than 85%)
Activity level (growth inhibition rate), Galium aparine [1]: 5 (Level 5: the growth inhibition rate is greater than 85%)
Activity level (growth inhibition rate), Monochoria Vaginalis [1]: 5 (Level 5: the growth inhibition rate is greater than 85%)

COC(=O)[C@@H](C)Oc1nc(F)c(Cl)c(NCc2ccco2)c1Cl [Compound 2-378]
Activity level (growth inhibition rate), Echinochloa crusgalli (Echinochloa crusgalli): 5 (Level 5: the growth inhibition rate is greater than 85%)
Activity level (growth inhibition rate), Digitaria sanguinalis (Digitaria sanguinalis): 5 (Level 5: the growth inhibition rate is greater than 85%)
Activity level (growth inhibition rate), Abutilon theophrasti Medic. [1]: 5 (Level 5: the growth inhibition rate is greater than 85%)
Activity level (growth inhibition rate), Galium aparine [1]: 5 (Level 5: the growth inhibition rate is greater than 85%)
Activity level (growth inhibition rate), Monochoria Vaginalis [1]: 5 (Level 5: the growth inhibition rate is greater than 85%)

CC(Oc1nc(F)c(Cl)c(N)c1Cl)C(=O)OCc1ccccc1Br (stereo not shown) [Compound 2-320]
Activity level (growth inhibition rate), Echinochloa crusgalli (Echinochloa crusgalli): 5 (Level 5: the growth inhibition rate is greater than 85%)
Activity level (growth inhibition rate), Digitaria sanguinalis (Digitaria sanguinalis): 5 (Level 5: the growth inhibition rate is greater than 85%)
Activity level (growth inhibition rate), Abutilon theophrasti Medic. [1]: 5 (Level 5: the growth inhibition rate is greater than 85%)
Activity level (growth inhibition rate), Galium aparine [1]: 5 (Level 5: the growth inhibition rate is greater than 85%)
Activity level (growth inhibition rate), Monochoria Vaginalis [1]: 5 (Level 5: the growth inhibition rate is greater than 85%)

Cc1ccccc1CSC(=O)C(C)Oc1nc(F)c(Cl)c(N)c1Cl (stereo not shown) [Compound 2-303]
Activity level (growth inhibition rate), Echinochloa crusgalli (Echinochloa crusgalli): 5 (Level 5: the growth inhibition rate is greater than 85%)
Activity level (growth inhibition rate), Digitaria sanguinalis (Digitaria sanguinalis): 5 (Level 5: the growth inhibition rate is greater than 85%)
Activity level (growth inhibition rate), Abutilon theophrasti Medic. [1]: 5 (Level 5: the growth inhibition rate is greater than 85%)
Activity level (growth inhibition rate), Galium aparine [1]: 5 (Level 5: the growth inhibition rate is greater than 85%)
Activity level (growth inhibition rate), Monochoria Vaginalis [1]: 5 (Level 5: the growth inhibition rate is greater than 85%)

CCC(C)(C)SC(=O)C(C)Oc1nc(F)c(Cl)c(N)c1Cl (stereo not shown) [Compound 2-100]
Activity level (growth inhibition rate), Echinochloa crusgalli (Echinochloa crusgalli): 5 (Level 5: the growth inhibition rate is greater than 85%)
Activity level (growth inhibition rate), Digitaria sanguinalis (Digitaria sanguinalis): 5 (Level 5: the growth inhibition rate is greater than 85%)
Activity level (growth inhibition rate), Abutilon theophrasti Medic. [1]: 5 (Level 5: the growth inhibition rate is greater than 85%)
Activity level (growth inhibition rate), Galium aparine [1]: 5 (Level 5: the growth inhibition rate is greater than 85%)
Activity level (growth inhibition rate), Monochoria Vaginalis [1]: 5 (Level 5: the growth inhibition rate is greater than 85%)

C[C@@H](Oc1nc(F)c(Cl)c(N)c1Cl)C(=O)OCc1cnn(C)c1 [Compound 2-354]
Activity level (growth inhibition rate), Echinochloa crusgalli (Echinochloa crusgalli): 5 (Level 5: the growth inhibition rate is greater than 85%)
Activity level (growth inhibition rate), Digitaria sanguinalis (Digitaria sanguinalis): 5 (Level 5: the growth inhibition rate is greater than 85%)
Activity level (growth inhibition rate), Abutilon theophrasti Medic. [1]: 5 (Level 5: the growth inhibition rate is greater than 85%)
Activity level (growth inhibition rate), Galium aparine [1]: 5 (Level 5: the growth inhibition rate is greater than 85%)
Activity level (growth inhibition rate), Monochoria Vaginalis [1]: 5 (Level 5: the growth inhibition rate is greater than 85%)
